Test results reported in patent publication EP4596574A1, “GLP-1/GCG/GIP TRIPLE-RECEPTOR AGONIST AND USE THEREOF” (Sunshine Lake Pharma Co., Ltd., priority 2022, dated 2024).
Entries after “also recorded” stand apart in the source; their conditions may differ. Marks after values point to notes of the source that are not given here.

Key:
GIPR = target: T1, GIPR (Homo sapiens, UniProt P48546); assay: In vitro cell activity, cAMP production in HEK293 cells expressing GIPR; assay type: cell-based
T1 construct: expressed in transfected cells; host or cells: HEK293 (HEK293-GIPR)
T1 sequence (P48546 22-466): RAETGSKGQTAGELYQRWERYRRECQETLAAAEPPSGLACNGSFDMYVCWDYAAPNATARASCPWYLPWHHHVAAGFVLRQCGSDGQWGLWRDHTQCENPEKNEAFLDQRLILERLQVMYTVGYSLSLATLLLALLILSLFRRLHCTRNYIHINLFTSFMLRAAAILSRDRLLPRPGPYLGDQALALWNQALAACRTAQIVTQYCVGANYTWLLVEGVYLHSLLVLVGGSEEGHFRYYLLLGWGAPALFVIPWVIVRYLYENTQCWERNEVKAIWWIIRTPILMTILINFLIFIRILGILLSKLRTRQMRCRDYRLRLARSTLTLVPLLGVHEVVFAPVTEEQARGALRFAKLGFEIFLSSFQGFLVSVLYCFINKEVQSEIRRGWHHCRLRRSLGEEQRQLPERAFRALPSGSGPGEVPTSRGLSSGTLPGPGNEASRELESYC
Outline: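 HEK293 cells expressing human GIPR, thawed and diluted to 4×10^5 cells/mL, are stimulated with test compound. cAMP is measured by HTRF competition between cAMP-d2 and anti-cAMP cryptate. EC50 comes from a four-parameter nonlinear fit of signal ratio against concentration.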

GCGR = target: T2, GCGR (Homo sapiens, UniProt P47871); assay: In vitro cell activity, cAMP production in HEK293 cells expressing GCGR; assay type: cell-based
T2 construct: expressed in transfected cells; host or cells: HEK293 (HEK293-GCGR)
T2 sequence (P47871 26-477, species assumed): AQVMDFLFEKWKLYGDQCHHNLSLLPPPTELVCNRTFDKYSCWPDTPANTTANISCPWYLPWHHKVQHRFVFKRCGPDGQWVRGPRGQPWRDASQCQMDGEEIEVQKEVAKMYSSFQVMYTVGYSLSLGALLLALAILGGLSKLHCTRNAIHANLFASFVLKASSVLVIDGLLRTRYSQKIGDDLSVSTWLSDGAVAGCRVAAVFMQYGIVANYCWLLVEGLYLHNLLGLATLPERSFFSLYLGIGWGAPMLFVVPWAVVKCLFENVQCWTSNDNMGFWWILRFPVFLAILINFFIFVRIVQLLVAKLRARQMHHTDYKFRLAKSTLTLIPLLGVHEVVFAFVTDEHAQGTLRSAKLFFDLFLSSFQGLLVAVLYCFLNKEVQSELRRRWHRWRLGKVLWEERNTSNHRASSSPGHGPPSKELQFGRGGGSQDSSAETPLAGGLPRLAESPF
Outline: (§1)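 cAMP output read as 665/620 nm HTRF ratio after adding cAMP-d2 plus anti-cAMP cryptate and incubating 1 h at room temperature in the dark or overnight at 4 °C. Cells: HEK293 expressing human GLP-1R or GCGR, plated from a 4×10^5 cells/mL suspension. Four-parameter fit gives EC50.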

[1] = Long-term repeated administration in diet-induced obese C57BL/6 mice (DIO); assay type: in vivo, C57/BL6 mice
GLP-1R = target: T3, GLP-1R (Homo sapiens, UniProt P43220); assay: In vitro cell activity, cAMP production in HEK293 cells expressing GLP-1R; assay type: cell-based
T3 construct: expressed in transfected cells; host or cells: HEK293 (HEK293-GLP-1R)
T3 sequence (P43220 24-463, species assumed): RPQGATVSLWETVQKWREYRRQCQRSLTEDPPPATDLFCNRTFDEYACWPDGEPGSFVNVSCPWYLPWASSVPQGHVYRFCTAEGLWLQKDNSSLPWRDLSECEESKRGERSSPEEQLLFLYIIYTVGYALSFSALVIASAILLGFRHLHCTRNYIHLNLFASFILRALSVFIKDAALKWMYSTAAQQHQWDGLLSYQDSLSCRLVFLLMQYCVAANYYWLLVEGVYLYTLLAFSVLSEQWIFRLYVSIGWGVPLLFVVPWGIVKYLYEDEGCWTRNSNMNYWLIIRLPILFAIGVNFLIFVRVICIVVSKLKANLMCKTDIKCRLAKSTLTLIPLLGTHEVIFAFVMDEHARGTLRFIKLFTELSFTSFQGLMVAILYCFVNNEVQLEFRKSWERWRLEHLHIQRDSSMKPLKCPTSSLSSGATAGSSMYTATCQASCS
Outline: as §1

[2] = In vivo efficacy evaluation in db/db mouse model (blood glucose); design: species or system db/db mice
Protocol: Blood glucose was tested before each administration.

[3] = 10 nmol/kg s.c. once every 3 days, D7
[4] = 10 nmol/kg s.c. once every 3 days, D10
[5] = 10 nmol/kg s.c. once every 3 days, D13
[6] = 10 nmol/kg s.c. once every 3 days, D16
[7] = 10 nmol/kg s.c. once every 3 days, D19
[8] = 10 nmol/kg s.c. once every 3 days, D22
[9] = 10 nmol/kg s.c. once every 3 days, D25
[10] = 10 nmol/kg s.c. once every 3 days, D28
[11] = after 4 weeks of administration
[12] = after 4 weeks of administration, same dose
[13] = long-term administration 10 nmol/kg, 72 h after the last administration
[14] = long-term administration 10 nmol/kg, blood biochemical index

CC[C@H](C)[C@H](NC(=O)[C@H](Cc1ccccc1)NC(=O)[C@H](C)NC(=O)[C@H](CCCNC(=N)N)NC(=O)[C@H](CCC(N)=O)NC(=O)[C@H](CCCNC(=N)N)NC(=O)[C@H](CCCCNC(=O)COCCOCCNC(=O)CC[C@H](NC(=O)CCCCCCCCCCCCCCCCCCC(=O)O)C(=O)O)NC(=O)[C@H](CCC(=O)O)NC(=O)[C@H](CC(=O)O)NC(=O)[C@H](CC(C)C)NC(=O)[C@H](CC(C)C)NC(=O)[C@@H](NC(=O)[C@H](CO)NC(=O)[C@H](Cc1ccc(O)cc1)NC(=O)[C@H](CC(=O)O)NC(=O)[C@H](CO)NC(=O)[C@@H](NC(=O)[C@](C)(Cc1ccccc1F)NC(=O)[C@@H](NC(=O)CNC(=O)[C@H](CCC(N)=O)NC(=O)C(C)(C)NC(=O)[C@@H](N)Cc1ccc(O)cc1)[C@@H](C)O)[C@@H](C)O)[C@@H](C)CC)C(=O)N[C@@H](CCC(=O)O)C(=O)N[C@@H](Cc1ccc(O)cc1)C(=O)N[C@@H](CC(C)C)C(=O)N[C@@H](CC(C)C)C(=O)N[C@@H](C)C(=O)NCC(=O)NCC(=O)N1CCC[C@H]1C(=O)N[C@@H](CO)C(=O)N[C@@H](CO)C(=O)NCC(=O)N[C@@H](C)C(=O)N1CCC[C@H]1C(=O)N1CCC[C@H]1C(=O)N1CCC[C@H]1C(=O)N[C@@H](CO)C(=O)O [HEC-PT86]
EC50 (GIPR): 113 pM
EC50 (GCGR): 806 pM
Cumulative food intake (g/pcs) D7 [1, 3]: 8.4 g/pcs
Weight gain rate (%) D7 [1, 3]: -17.8±5.8%
Cumulative food intake (g/pcs) D10 [1, 4]: 11.6 g/pcs
Weight gain rate (%) D10 [1, 4]: -23.5±6.6%
Cumulative food intake (g/each) D13 [1, 5]: 14.5 g/each
Weight gain rate (%) D13 [1, 5]: -26.1±7.2%
Cumulative food intake (g/each) D16 [1, 6]: 19.3 g/each
Weight gain rate (%) D16 [1, 6]: -27.9±7.6%
Cumulative food intake (g/each) D19 [1, 7]: 24.5 g/each
Weight gain rate (%) D19 [1, 7]: -29.2±8.1%
Cumulative food intake (g/each) D22 [1, 8]: 30.4 g/each
Weight gain rate (%) D22 [1, 8]: -29.3±7.2%
Cumulative food intake (g/each) D25 [1, 9]: 36.6 g/each
Weight gain rate (%) D25 [1, 9]: -30.6±7.0%
Cumulative food intake (g/each) D28 [1, 10]: 43.4 g/each
Weight gain rate (%) D28 [1, 10]: -31.2±6.4%
Cumulative food intake (g/each) D30 ([1]; 10 nmol/kg s.c. once every 3 days, D30): 47.0^a g/each
Weight gain rate (%) D31 ([1]; 10 nmol/kg s.c. once every 3 days, D31): -30.9±6.4^a %
Cumulative food intake (g/pcs) D0 ([1]; 10 nmol/kg s.c., D0): 2.5 g/pcs
Weight gain rate (%) D0 ([1]; 10 nmol/kg s.c., D0): 0.0±0.0%
Cumulative food intake (g/pcs) D1 ([1]; 10 nmol/kg s.c., D1): 2.9 g/pcs
Weight gain rate (%) D1 ([1]; 10 nmol/kg s.c., D1): -6.0±0.8%
Cumulative food intake (g/pcs) D2 ([1]; 10 nmol/kg s.c., D2): 3.5 g/pcs
Weight gain rate (%) D2 ([1]; 10 nmol/kg s.c., D2): -8.8±1.4%
Cumulative food intake (g/pcs) D3 ([1]; 10 nmol/kg s.c., D3): 4.5 g/pcs
Weight gain rate (%) D3 ([1]; 10 nmol/kg s.c., D3): -9.9±1.6%
Cumulative food intake (g/pcs) D4 ([1]; 10 nmol/kg s.c., D4): 5.8 g/pcs
Weight gain rate (%) D4 ([1]; 10 nmol/kg s.c., D4): -10.6±2.9%
liver function and blood lipids of DIO mice [1, 11]: significantly improved the liver function and blood lipids
weight loss and food intake inhibition effects compared with Semaglutide [1, 11]: superior to the positive drug Semaglutide
food intake inhibition effect compared with LY3298176 [1, 12]: comparable to those of the same dose of the positive drug LY3298176
weight loss effect compared with LY3298176 [1, 12]: comparable to those of the same dose of the positive drug LY3298176
Liver index/% [1, 13]: 2.7±0.0^a %
Liver/g [1, 13]: 0.9±0.1^a g
Weight/g [1, 13]: 32.3±4.4^a g
ALT (U/L) [1, 14]: 27.8±9.4^a U/L
AST (U/L) [1, 14]: 108.6±26.3^a U/L
CHOL (mmol/L) [1, 14]: 3.5±0.7^a mmol/L
TRIGL (mmol/L) [1, 14]: 0.6±0.1^a mmol/L
EC50 (GLP-1R): 158 pM
blood glucose after administration ([2]; db/db mice, 10 nmol/kg): significantly reduce blood glucose
Random blood glucose (mM) D0 ([2]; db/db mice, 10 nmol/kg s.c. once every three days, D0 (before first dose)): 27.3 ± 3.6 mM
Random blood glucose (mM) D3 ([2]; db/db mice, 10 nmol/kg s.c. once every three days, D3): 9.2 ± 5.6 mM
Random blood glucose (mM) D4 ([2]; db/db mice, 10 nmol/kg s.c. once every three days, D4): 16.2 ± 6.5 mM
Random blood glucose (mM) D5 ([2]; db/db mice, 10 nmol/kg s.c. once every three days, D5): 18.8 ± 5.7 mM
Random blood glucose (mM) D6 ([2]; db/db mice, 10 nmol/kg s.c. once every three days, D6): 23.0 ± 3.7 mM
Random blood glucose (mM) D7 ([2]; db/db mice, 10 nmol/kg s.c. once every three days, D7): 21.0 ± 4.4 mM
Random blood glucose (mM) D10 ([2]; db/db mice, 10 nmol/kg s.c. once every three days, D10): 9.1 ± 2.3 mM
Random blood glucose (mM) D13 ([2]; db/db mice, 10 nmol/kg s.c. once every three days, D13): 9.6 ± 3.2 mM
Random blood glucose (mM) D16 ([2]; db/db mice, 10 nmol/kg s.c. once every three days, D16): 8.4 ± 1.7 mM
Random blood glucose (mM) D19 ([2]; db/db mice, 10 nmol/kg s.c. once every three days, D19): 12.0 ± 3.3 mM
Random blood glucose (mM) D22 ([2]; db/db mice, 10 nmol/kg s.c. once every three days, D22): 11.6 ± 3.8 mM
Random blood glucose (mM) D25 ([2]; db/db mice, 10 nmol/kg s.c. once every three days, D25): 13.1±3.3^a mM
Random blood glucose (mM) 6 h ([2]; db/db mice, 10 nmol/kg s.c., 6 h): 15.4 ± 4.4 mM
Random blood glucose (mM) 24 h ([2]; db/db mice, 10 nmol/kg s.c., 24 h): 6.5 ± 1.4 mM
Random blood glucose (mM) 48 h ([2]; db/db mice, 10 nmol/kg s.c., 48 h): 7.9 ± 2.8 mM
time at which blood glucose levels reached the lowest level ([2]; db/db mice, 10 nmol/kg, after administration): about 24 hours
blood glucose lowering after long-term administration compared with LY3298176 ([2]; db/db mice, long-term repeated administration): better than that of the LY3298176 group; also recorded: better hypoglycemic effect than LY3298176
blood glucose reducing effect after administration compared with LY3298176 ([2]; db/db mice, same dose 10 nmol/kg): slightly better than the positive control LY3298176
blood glucose level after long-term administration ([2]; type II diabetes model db/db mice): significantly improve the blood glucose level
